Test results reported in patent US7981904B2, “Acetyl CoA carboxylase inhibitors” (Takeda Pharmaceutical Company Limited, priority 2008, dated 2011).

Experiments:
Human ACC2 = target: T1, Human ACC2 (Homo sapiens, UniProt O00763); assay: in vitro enzymatic ACC activity assay (malachite green, absorbance at 620 nm), ACC2; assay type: biochemical; conditions: recombinant His-tagged human ACC2, 6.4 μg/mL; same method as ACC1
T1 construct: made in house; host or cells: SF-9 insect cells (baculovirus, pFAST-BacHTa)
T1 sequence (O00763 117-2458 limits assumed): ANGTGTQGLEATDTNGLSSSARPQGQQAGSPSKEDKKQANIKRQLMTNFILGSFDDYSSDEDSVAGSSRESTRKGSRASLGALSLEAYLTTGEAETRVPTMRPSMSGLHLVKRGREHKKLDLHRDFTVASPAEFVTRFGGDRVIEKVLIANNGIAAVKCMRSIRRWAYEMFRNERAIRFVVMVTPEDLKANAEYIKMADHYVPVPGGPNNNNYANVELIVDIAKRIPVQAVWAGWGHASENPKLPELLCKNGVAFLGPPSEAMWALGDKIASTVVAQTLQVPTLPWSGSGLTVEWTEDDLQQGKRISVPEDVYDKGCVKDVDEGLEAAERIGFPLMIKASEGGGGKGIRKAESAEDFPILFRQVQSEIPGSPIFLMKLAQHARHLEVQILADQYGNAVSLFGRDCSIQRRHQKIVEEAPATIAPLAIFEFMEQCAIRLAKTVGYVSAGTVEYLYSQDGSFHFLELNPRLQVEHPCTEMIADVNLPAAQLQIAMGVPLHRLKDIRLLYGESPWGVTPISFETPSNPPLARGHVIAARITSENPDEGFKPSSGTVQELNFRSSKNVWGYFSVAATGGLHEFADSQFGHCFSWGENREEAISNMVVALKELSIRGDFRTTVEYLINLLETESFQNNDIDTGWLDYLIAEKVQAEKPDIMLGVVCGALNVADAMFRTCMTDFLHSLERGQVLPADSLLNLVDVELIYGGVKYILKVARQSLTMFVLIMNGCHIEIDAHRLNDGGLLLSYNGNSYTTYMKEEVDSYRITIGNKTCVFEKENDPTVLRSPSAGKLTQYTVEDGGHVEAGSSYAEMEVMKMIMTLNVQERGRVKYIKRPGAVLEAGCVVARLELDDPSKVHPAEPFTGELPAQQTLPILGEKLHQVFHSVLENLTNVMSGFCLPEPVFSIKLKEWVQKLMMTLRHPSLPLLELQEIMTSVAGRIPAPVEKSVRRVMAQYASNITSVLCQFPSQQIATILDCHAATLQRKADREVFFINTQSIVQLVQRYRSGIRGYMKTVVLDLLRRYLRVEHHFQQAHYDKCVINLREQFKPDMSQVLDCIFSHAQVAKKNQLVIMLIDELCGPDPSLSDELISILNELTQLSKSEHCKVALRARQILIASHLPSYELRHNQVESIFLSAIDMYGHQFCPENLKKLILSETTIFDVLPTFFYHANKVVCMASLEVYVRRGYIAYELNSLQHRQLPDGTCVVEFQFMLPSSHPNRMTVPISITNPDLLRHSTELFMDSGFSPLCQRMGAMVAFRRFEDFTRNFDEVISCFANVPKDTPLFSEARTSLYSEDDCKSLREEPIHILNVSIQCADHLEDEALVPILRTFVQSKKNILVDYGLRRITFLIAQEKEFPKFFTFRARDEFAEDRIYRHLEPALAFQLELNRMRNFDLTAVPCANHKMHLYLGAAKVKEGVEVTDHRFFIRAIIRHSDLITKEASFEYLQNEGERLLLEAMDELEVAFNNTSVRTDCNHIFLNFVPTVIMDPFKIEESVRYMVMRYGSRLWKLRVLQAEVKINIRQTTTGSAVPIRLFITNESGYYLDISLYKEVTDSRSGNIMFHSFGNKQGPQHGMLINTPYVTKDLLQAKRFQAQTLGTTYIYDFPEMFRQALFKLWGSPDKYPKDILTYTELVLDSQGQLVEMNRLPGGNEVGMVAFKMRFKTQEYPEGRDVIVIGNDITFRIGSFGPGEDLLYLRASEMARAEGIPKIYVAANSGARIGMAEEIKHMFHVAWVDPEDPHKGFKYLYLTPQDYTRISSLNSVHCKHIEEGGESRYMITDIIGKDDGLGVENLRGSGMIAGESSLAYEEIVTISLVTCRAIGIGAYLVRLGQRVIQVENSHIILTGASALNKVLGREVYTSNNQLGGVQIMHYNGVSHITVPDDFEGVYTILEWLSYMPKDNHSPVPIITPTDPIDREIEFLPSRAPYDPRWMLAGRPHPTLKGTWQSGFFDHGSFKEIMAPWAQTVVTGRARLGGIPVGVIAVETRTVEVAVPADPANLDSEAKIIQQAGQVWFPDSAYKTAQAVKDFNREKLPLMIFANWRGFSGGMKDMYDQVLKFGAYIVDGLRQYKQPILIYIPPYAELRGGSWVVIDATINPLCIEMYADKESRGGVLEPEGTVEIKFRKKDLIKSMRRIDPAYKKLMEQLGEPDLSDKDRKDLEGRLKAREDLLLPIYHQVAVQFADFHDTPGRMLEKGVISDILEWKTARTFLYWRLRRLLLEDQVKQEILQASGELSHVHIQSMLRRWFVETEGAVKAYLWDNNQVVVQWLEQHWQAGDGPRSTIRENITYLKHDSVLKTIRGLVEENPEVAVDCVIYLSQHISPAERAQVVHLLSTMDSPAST
Experimental: (§1) Provided in Example A is an in vitro enzymatic ACC activity assay for activity against ACC. The binding affinity of the test compound to ACC1 or ACC2 is determined by the changes in absorbance (at 620 nm); […]. It should be noted that a variety of other expression systems and hosts are also suitable for the expression of ACC, as would be readily appreciated by one of skill in the art.
B. Purification of Human ACC2
Human ACC2 cDNA except coding region for mitochondria localization sequence was amplified from human skeletal muscle cDNA by polymerase chain reaction using primers; 5′[…]3′ (SEQ ID NO: 3) and 5′[…]3′ (SEQ ID NO: 4). The amplified DNA fragment was digested by SalI and AflIII, and cloned into pFAST-BacHTa (Invitrogen). Preparation of recombinant vaculovirus, infection of the virus to SF-9 cells and purification of recombinant ACC2 protein with 6×His-tag at the N-terminal were performed in the same method as described above.
(§2) C. Measurement of ACC Activity
(§3) Malachite green solution was prepared by mixing 100 mL of solution A (0.12% malachite green in 5N H2SO4), 25 mL of solution B (7.5% ammonium molybdate) and 2 mL of solution C (11% TWEEN-20).
(§4) ACC1 was diluted to 8 μg/mL in reaction buffer (50 mM HEPES pH7.5, 10 mM MgCl2, 10 mM tripotassium citrate, 2 mM DTT, 0.75 mg/mL fatty acid free BSA) and 10 μL diluted enzyme solution was pored into each well of 384-well clear bottom plate. Test compound was diluted in the reaction buffer and 5 μL of the compound solution was added into each well, and the mixture was incubated at 30° C. for 60 minutes. Reaction was initiated by addition of 5 μL substrate solution (50 mM KHCO3, 200 μM ATP, 200 μM acetyl-CoA). After incubation at 30° C. for 20 minutes, reaction was terminated by addition of 5 μL malachite green solution and absorbance at 620 nm was measured.
ACC2 was diluted to 6.4 μg/mL in reaction buffer, and the activity was measured by the same method as described for ACC1.
(§5) Percent activity at each concentration of compound was calculated from the following equation:
(§6) [formula] where Abs is absorbance, Avg is average.
(§7) Data were subjected to nonlinear regression analysis using GraphPad Prism Software (GraphPad Software Inc.) to obtain IC50 values.

Human ACC1 = target: T2, Human ACC1 (Homo sapiens, UniProt Q13085); assay: in vitro enzymatic ACC activity assay (malachite green, absorbance at 620 nm), ACC1; assay type: biochemical; conditions: recombinant His-tagged human ACC1, 8 μg/mL; 60 min preincubation, 20 min reaction at 30° C.
T2 construct: made in house; host or cells: SF-9 insect cells (baculovirus, pFAST-BacHTc)
Experimental: as §1
A. Purification of Human ACC1
Human ACC1 cDNA was amplified from human liver cDNA by polymerase chain reaction using primers; 5′[…]3′ (SEQ ID NO. 1) and 5′[…]3′ (SEQ ID NO: 2). The amplified DNA fragment was digested by restriction enzyme SalI and NotI, and cloned into pFAST-BacHTc (Invitrogen). This plasmid DNA was used for preparation of recombinant vaculovirus with BAC-TO-BAC Baculovirus Expression System (Invitrogen).
SF-9 cells were infected with the vaculovirus and cultured at 27° C. for 3 days. Harvested cells were homogenized in buffer A (25 mM HEPES (pH7.5), 130 mM NaCl, 1 mM EDTA, 25 mM sodium glycerophosphate, 1 mM sodium orthovanadate, 10% glycerol, complete protease inhibitor), and subjected to ultracentrifuge at 185700×g for 50 min at 4° C. ACC1 protein with 6×His-tag at the N-terminal was purified from the supernatant using Ni-NTA Super Flow Gel (QIAGEN). Eluted protein was dialysed against buffer B (50 mM HEPES (pH 7.5), 300 mM NaCl, 10 mM MgCl2, 10 mM tripotassium citrate, 2 mM dithiothreitol) and concentrated using Vivaspin20 ultrafiltration tube (Sartorius).
as §2, §3, §4, §5, §6, §7

| SMILES | IC50 (Human ACC2) | IC50 (Human ACC1) |
| --- | --- | --- |
| CCNC(=O)Nc1sc2ccccc2c1C(=O)N1CCC2(CC1)N=C(CN1C(=O)CCC1=O)NC2=O [Compound 5, 1-(3-(2-((2,5-dioxopyrrolidin-1-yl)methyl)-4-oxo-1,3,8-triazaspiro[4.5]dec-1-enecarbonyl)benzo[b]thiophen-2-yl)-3-ethylurea] | > 10 µM | > 10 µM |
| CCNC(=O)Nc1sc2ccccc2c1C(=O)N1CCC(N)(C(N)=O)CC1 [Compound 7, 4-amino-1-(2-(3-ethylureido)benzo[b]thiophene-3-carbonyl)piperidine-4-carboxamide] | > 10 µM | > 10 µM |
| CCNC(=O)Nc1sc2ccccc2c1C(=O)N1CCC2(CC1)N=C(CCl)NC2=O [Compound 8, 1-(3-(2-(chloromethyl)-4-oxo-1,3,8-triazaspiro[4.5]dec-1-enecarbonyl)benzo[b]thiophen-2-yl)-3-ethylurea] | 1 to 10 µM | > 10 µM |
| CCNC(=O)Nc1sc2c(OC)cccc2c1C(=O)N1CCC2(CC1)N=C(CCl)NC2=O [Compound 9, 1-(3-(2-(chloromethyl)-4-oxo-1,3,8-triazaspiro[4.5]dec-1-enecarbonyl)-7-methoxybenzo[b]thiophen-2-yl)-3-ethylurea] | 1 to 10 µM | 1 to 10 µM |
| CCNC(=O)Nc1sc2ccccc2c1C(=O)N1CCC2(CC1)N=C(CCC(=O)N(CC)CC)NC2=O [Compound 12, N,N-diethyl-3-(8-(2-(3-ethylureido)benzo[b]thiophene-3-carbonyl)-4-oxo-1,3,8-triazaspiro[4.5]dec-1-en-2-yl)propanamide] | 1 to 10 µM | 1 to 10 µM |
| CCNC(=O)Nc1sc2ccccc2c1C(=O)N1CCC2(CC1)N=C(CCC(=O)N1CCCCC1)NC2=O [Compound 13, 1-ethyl-3-(3-(4-oxo-2-(3-oxo-3-(piperidin-1-yl)propyl)-1,3,8-triazaspiro[4.5]dec-1-enecarbonyl)benzo[b]thiophen-2-yl)urea] | < 1 µM | 1 to 10 µM |

Further lines, results first:

| IC50 (Human ACC2) | IC50 (Human ACC1) | SMILES |
| --- | --- | --- |
| 1 to 10 µM | 1 to 10 µM | CCNC(=O)Nc1sc2ccccc2c1C(=O)N1CCC2(CC1)N=C(CSC)NC2=O [Compound 3, 1-ethyl-3-(3-(2-(methylthiomethyl)-4-oxo-1,3,8-triazaspiro[4.5]dec-1-enecarbonyl)benzo[b]thiophen-2-yl)urea] |
| 1 to 10 µM | > 10 µM | CCNC(=O)Nc1sc2ccccc2c1C(=O)N1CCC2(CC1)N=C(CS(C)(=O)=O)NC2=O [Compound 4, 1-ethyl-3-(3-(2-(methylsulfonylmethyl)-4-oxo-1,3,8-triazaspiro[4.5]dec-1-enecarbonyl)benzo[b]thiophen-2-yl)urea] |
| > 10 µM | > 10 µM | CCNC(=O)Nc1sc2ccccc2c1C(=O)N1CCC(N)(C#N)CC1 [Compound 6, 1-(3-(4-amino-4-cyanopiperidine-1-carbonyl)benzo[b]thiophen-2-yl)-3-ethylurea] |
| 1 to 10 µM | 1 to 10 µM | CCNC(=O)Nc1sc2ccccc2c1C(=O)N1CCC2(CC1)N=C(CCC(=O)OCC)NC2=O [Compound 10, ethyl 3-(8-(2-(3-ethylureido)benzo[b]thiophene-3-carbonyl)-4-oxo-1,3,8-triazaspiro[4.5]dec-1-en-2-yl)propanoate] |
| < 1 µM | < 1 µM | CCNC(=O)Nc1sc2c(OC)cccc2c1C(=O)N1CCC2(CC1)N=C(CCC(=O)OCC)NC2=O [Compound 11, ethyl 3-(8-(2-(3-ethylureido)-7-methoxybenzo[b]thiophene-3-carbonyl)-4-oxo-1,3,8-triazaspiro[4.5]dec-1-en-2-yl)propanoate] |
| > 10 µM | > 10 µM | CCNC(=O)Nc1sc2ccccc2c1C(=O)N1CCC2(CC1)N=CNC2=O [Compound 14, 1-ethyl-3-(3-(4-oxo-1,3,8-triazaspiro[4.5]dec-1-enecarbonyl)benzo[b]thiophen-2-yl)urea] |
| < 1 µM | 1 to 10 µM | CCCCC1=NC2(CCN(C(=O)c3c(NC(=O)NCC)sc4ccccc34)CC2)C(=O)N1 [Compound 15, 1-(3-(2-butyl-4-oxo-1,3,8-triazaspiro[4.5]dec-1-enecarbonyl)benzo[b]thiophen-2-yl)-3-ethylurea] |
